Paper PMC12714101, “CD160-Derived Peptide as a Bidirectional Inhibitor Toward Immune Checkpoints BTLA/HVEM and HVEM/LIGHT” (Journal of Medicinal Chemistry, 2025)
Where a SMILES comes first, the peptide text is derived from it.

Assays:
BTLA/HVEM complex = molecular target: T1, BTLA/HVEM complex (Homo sapiens, UniProt Q92956); test: ELISA inhibition of BTLA/HVEM complex formation; type: biochemical; conditions: immobilized HVEM-His, BTLA-Fc 5 μg/mL, PBS-T, 37 °C, mean of three independent experiments; for inhibition at 16.67 µM: peptide 16.67 μM; for inhibition at 50 µM: peptide 50 μM; for inhibition at 150 µM: peptide 150 μM
T1 construct: purchased ACROBiosystems HVM-H52E9 (HVEM-His); BTA-H5255 (BTLA-Fc)
T1 sequence (Q92956 39-202 limits assumed): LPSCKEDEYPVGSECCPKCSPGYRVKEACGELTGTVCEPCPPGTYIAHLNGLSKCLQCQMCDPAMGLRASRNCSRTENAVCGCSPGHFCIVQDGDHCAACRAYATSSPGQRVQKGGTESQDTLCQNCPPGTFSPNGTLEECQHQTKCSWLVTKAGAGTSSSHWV
Description: In the subsequent stage of the study, the potential of the obtained compounds to inhibit the interaction between BTLA and HVEM proteins was evaluated using ELISA, following the methodology described in our previous studies. , HVEM was immobilized on the plate and incubated with peptides at three different concentrations, followed by the addition of Fc-tagged BTLA. Detection was carried out using horseradish peroxidase (HRP) conjugated with anti-human IgG and 3,3′,5,5′-tetramethylbenzidine (TMB) as a substrate. Signal intensity was directly proportional to the amount of BTLA bound to HVEM and inversely proportional to the inhibitory activity of the tested peptides. As a control, BTLA and HVEM were incubated in the absence of peptides.
Recombinant human HVEM protein with a His tag was purchased from ACROBiosystems, Newark, DE, USA (no. HVM-H52E9). Recombinant human protein BTLA-Fc and LIGHT-Fc were also purchased from ACROBiosystems, Newark, DE, USA (no. BTA-H5255 and no. LIT-H5269).
ELISA was performed using transparent 96-well NUNC Maxisorp plates (Thermo Fisher Scientific, Waltham, MA, USA). In the first step, HVEM-His, dissolved in PBS at a concentration of 5 μg/mL (100 μL/well), was immobilized on the plate by overnight incubation at 4 °C. Wells were then blocked with 5% bovine serum albumin (BSA) in PBS containing 0.05% Tween 20 (PBS-T) (200 μL/well). Next, peptides dissolved in PBS-T at concentrations of 150, 50, and 16.67 μM were added to the wells (100 μL/well). Following this, BTLA-Fc in PBS-T at a concentration of 5 μg/mL (100 μL/well) was applied. In the next step, goat anti-human IgG antibody conjugated with the HRP (Bio-Rad Laboratories, Hercules, CA, USA) in PBS-T at a ratio of 1:30,000 (v/v) was added (100 μL/well). Colorimetric detection was performed by adding 100 μL of TMB substrate (Thermo Fisher Scientific, Waltham, MA, USA) to each well and incubating the plate in the dark. At each stage, plates were incubated at 37 °C with continuous shaking for 1 h (except TMB, which was incubated for 15 min). After each incubation, wells were washed five times with PBS-T. Absorbance was measured using an Infinite M200 Pro Reader (Tecan Group Ltd., Männedorf, Switzerland) at wavelengths of 650 nm (measurement wavelength) and 492 nm (reference wavelength). Inhibition assays for the HVEM/LIGHT complex were conducted using the same approach, except that LIGHT was used instead of BTLA. The BTLA/HVEM and HVEM/LIGHT complexes without peptides served as controls. Inhibition percentages were calculated based on the assumption that PBS-T has no effect on the formation of BTLA/HVEM or HVEM/LIGHT complexes. Each ELISA was conducted in at least three independent replicates. The data were analyzed using GraphPad Prism 8 software (San Diego, CA, USA).

BTLA/HVEM interaction = test: Cellular reporter assay, HVEM reporter cells (JE6.1-NF-κB::eGFP) stimulated with TCS-BTLA; type: cell-based, human; conditions: 30 min preincubation, 24 h coculture, NF-κB::eGFP by flow cytometry, mean of four independent experiments in duplicate; for Inhibition - Cellular assay 16.67 µM: peptide 16.67 μM; for Inhibition - Cellular assay 50 µM: peptide 50 μM; for Inhibition - Cellular assay 150 µM: peptide 150 μM
Description: In the next step of the study, the inhibitory properties of the designed peptides were evaluated using previously described cell-based assays. The experiment utilized reporter cells expressing HVEM (JE6.1-NF-κB::eGFP) and T cell stimulator cells expressing BTLA (TCS-BTLA). Activation of the reporter cells by TCS followed a two-signal model. The first is generated through the interaction between the T cell receptor–cluster of differentiation 3 (TCR–CD3) complex on the surface of the reporter cells and a membrane-bound antihuman CD3 single-chain antibody fragment (mAb aCD3) expressed on the TCS cells. The second signal is provided by the binding of HVEM and BTLA, which in this assay results in a strong costimulatory signal via HVEM. Activation of the reporter cells leads to the expression of nuclear factor kappa light chain enhancer of activated B cells (NF-κB), which correlates with the level of enhanced green fluorescent protein (eGFP), measured by flow cytometry. In the absence of peptides, NF-κB expression is normalized to 100%. Disruption of the BTLA/HVEM interaction by peptides results in a concentration-dependent decrease in NF-κB levels. In this study, HVEM-expressing reporter cells were stimulated with BTLA-expressing TCS cells in the presence or absence of tested peptides at three different concentrations.
Cellular studies were performed in the same procedure as we described previously for gD- and BTLA-derived peptides. , The peptides were dissolved in the medium, and their final concentrations in wells were 150, 50, and 16,7 μM. Briefly, reporter cells expressing HVEM (JE6.1-NF-κB::eGFP) (5 × 10^4 cells/well) were preincubated with peptides for 30 min in a 96-well flat-bottom plate. Subsequently, the second cell line expressing BTLA (TCS BTLA) or LIGHT (TCS LIGHT) (2 × 10^4 cells/well) was added and cocultured for 24 h at 37 °C in an atmosphere of 5% CO2. Next, an APC-conjugated mCD45.2 antibody to exclude TCS from the reporter cells was added. The expression of the reporter gene (eGFP) was measured via flow cytometry using a CytoFLEX flow cytometer (Beckman Coulter Inc., Brea, CA, USA), and the results were analyzed using FlowJo v10.10 (FlowJo LLC, Ashland, OR, USA). The data were analyzed using GraphPad Prism 8 software (San Diego, CA, USA).

Jurkat E6.1 cells = conditions: 150 µM
Description: (§1) Before conducting cellular assays, the effects of the peptides on cell viability in Jurkat E6.1 and T cell stimulator (TCS) cell lines, as well as their stability in cell culture supernatant, were evaluated. Jurkat E6.1 cells are human T cell acute lymphoblastic leukemia cells, while TCS is a modified murine thymoma cell line (BW5147). The cellular platforms described below are based on these cells. […] The stability of the peptides in supernatant collected from cells after 24 h of incubation was also assessed.
(§2) Comparison of the binding affinity obtained from SpS and MM-GBSA
(§3) Table S3. Experimental and theoretical binding affinities for the BTLA/HVEM and HVEM/peptide complexes. Experimental Kd values obtained from SpS were used to calculate the corresponding ΔG, while theoretical ΔG values were obtained from MM-GBSA analysis. protein/protein ΔG ΔG obtained from or K [µmol] SD calculated SD MM-GBSA SD
(§4) The cytotoxicity of the peptides against two cell lines, Jurkat E6.1 and TCS, was examined. To estimate the number of viable cells, the CellTiter-Glo® luminescence-based assay

[1] = test system: T cell stimulator (TCS) cell line (BW5147); conditions: 150 µM
Description: as §1, §2, §3, §4

Row | SMILES | inhibition at 16.67 µM (BTLA/HVEM complex) | inhibition at 50 µM (BTLA/HVEM complex) | inhibition at 150 µM (BTLA/HVEM complex) | Inhibition - Cellular assay 16.67 µM (BTLA/HVEM interaction) | Inhibition - Cellular assay 50 µM (BTLA/HVEM interaction) | Inhibition - Cellular assay 150 µM (BTLA/HVEM interaction) | Cell viability, Jurkat E6.1 (Jurkat E6.1 cells) | Cell viability, TCS [1]
1 | CC(=O)N[C@@H](Cc1ccccc1)C(=O)N[C@H](C(=O)N[C@H](C(=O)N[C@@H](Cc1ccccc1)C(=O)N[C@@H](CC(C)C)C(=O)N[C@H]1CSSC[C@@H](C(=O)N[C@@H](CO)C(=O)N2CCC[C@H]2C(=O)N[C@@H](CCC(=O)O)C(=O)N[C@H](C(=O)N[C@@H](CO)C(=O)N[C@@H](CC(C)C)C(=O)N[C@@H](CCCCN)C(=O)N[C@@H](CCC(N)=O)C(=O)N[C@@H](CC(C)C)C(=O)N[C@@H](CCCNC(=N)N)C(=O)N[C@@H](CC(C)C)C(N)=O)[C@@H](C)O)NC(=O)[C@H](CC(=O)O)NC(=O)CNC(=O)[C@H](CO)NC(=O)[C@H](CCCNC(=N)N)NC(=O)[C@H](CC(=O)O)NC(=O)[C@H](CCCCN)NC1=O)C(C)C)C(C)C [B5, CD160(56–79)] (HELM PEPTIDE1{[ac].F.V.V.F.L.C.K.D.R.S.G.D.C.S.P.E.T.S.L.K.Q.L.R.L.[am]}$PEPTIDE1,PEPTIDE1,7:R3-14:R3$$$V2.0) | -7.56% | -7.13% | -4.6% | 12.02% | 12.02% | 2.50% | 75% | 
2 | CC(=O)N[C@@H](Cc1ccccc1)C(=O)N[C@@H](CC(C)C)C(=O)N[C@H]1CSSC[C@@H](C(=O)N[C@@H](CO)C(=O)N2CCC[C@H]2C(=O)N[C@@H](CCC(=O)O)C(=O)N[C@H](C(=O)N[C@@H](CO)C(=O)N[C@@H](CC(C)C)C(=O)N[C@@H](CCCCN)C(N)=O)[C@@H](C)O)NC(=O)[C@H](CC(=O)O)NC(=O)CNC(=O)[C@H](CO)NC(=O)[C@H](CCCNC(=N)N)NC(=O)[C@H](CC(=O)O)NC(=O)[C@H](CCCCN)NC1=O [C3, CD160(59–75)] (HELM PEPTIDE1{[ac].F.L.C.K.D.R.S.G.D.C.S.P.E.T.S.L.K.[am]}$PEPTIDE1,PEPTIDE1,4:R3-11:R3$$$V2.0) | 1.86% | 2.02% | 0.4% | 5.70% | 4.25% | 4.78% |  | 
3 | CC[C@@H]1NC(=O)[C@H](CC(C)C)NC(=O)[C@H](Cc2ccccc2)NC(=O)[C@H](C(C)C)NC(=O)[C@@H](NC(=O)[C@H](Cc2ccccc2)NC(C)=O)CSSC[C@@H](C(=O)N[C@@H](CC(C)C)C(N)=O)NC(=O)[C@H](CC(C)C)NC(=O)[C@H](CCC(N)=O)NC(=O)[C@H](CCCCN)NC(=O)[C@H](CC(C)C)NC(=O)[C@H](CO)NC(=O)[C@H]([C@@H](C)O)NC(=O)[C@H](CCC(=O)O)NC(=O)[C@@H]2CCCN2C(=O)[C@H](CO)NC(=O)[C@H](CC)NC(=O)[C@H](CC(=O)O)NC(=O)CNC(=O)[C@H](CO)NC(=O)[C@H](CCCNC(=N)N)NC(=O)[C@H](CC(=O)O)NC(=O)[C@H](CCCCN)NC1=O [B2, CD160(56–79)^(V57C,C61X,C68X,R78C)] (HELM PEPTIDE1{[ac].F.C.V.F.L.[Abu].K.D.R.S.G.D.[Abu].S.P.E.T.S.L.K.Q.L.C.L.[am]}$PEPTIDE1,PEPTIDE1,3:R3-24:R3$$$V2.0) | -3.89% | -2.56% |  |  |  |  | 47% | 9%
4 | CC[C@@H]1NC(=O)[C@@H](NC(=O)[C@H](Cc2ccccc2)NC(=O)[C@@H](NC(=O)[C@@H](NC(=O)[C@H](Cc2ccccc2)NC(C)=O)C(C)C)C(C)C)CSSC[C@@H](C(=O)N[C@@H](CCCCN)C(=O)N[C@@H](CCC(N)=O)C(=O)N[C@@H](CC(C)C)C(=O)N[C@@H](CCCNC(=N)N)C(=O)N[C@@H](CC(C)C)C(N)=O)NC(=O)[C@H](CO)NC(=O)[C@H]([C@@H](C)O)NC(=O)[C@H](CCC(=O)O)NC(=O)[C@@H]2CCCN2C(=O)[C@H](CO)NC(=O)[C@H](CC)NC(=O)[C@H](CC(=O)O)NC(=O)CNC(=O)[C@H](CO)NC(=O)[C@H](CCCNC(=N)N)NC(=O)[C@H](CC(=O)O)NC(=O)[C@H](CCCCN)NC1=O [B3, CD160(56–79) ^(L60C,C61X,C68X,L74C)] (HELM PEPTIDE1{[ac].F.V.V.F.C.[Abu].K.D.R.S.G.D.[Abu].S.P.E.T.S.C.K.Q.L.R.L.[am]}$PEPTIDE1,PEPTIDE1,6:R3-20:R3$$$V2.0) | -4.44% | -5.5% | -4.74% |  |  |  |  | 
